Data set [1] concerns Mus musculus. As to the kind of experiment: Ex vivo binding affinity to beta-amyloid plaque in wild-type mouse brain at 5.5 MBq, iv measured at 1 hr by Thioflavin-S fluorescence microscopy. Format: functional, organism-based. Conditions: 5.5 M, tested as the 18F-labelled form.
Data set [2] concerns Mus musculus. In words: Ex vivo binding affinity to beta-amyloid plaque in Tg2576 mouse brain at 5.5 MBq, iv measured at 1 hr by Thioflavin-S fluorescence microscopy. The format is functional, organism-based. Conditions: 5.5 M, tested as the 18F-labelled form.
For data set [3], the target named is T1, Amyloid-beta precursor protein (Homo sapiens, UniProt P05067). In words: Ratio of AV-45 Ki to compound Ki for amyloid beta (1 to 42) (unknown origin) […] by gamma counting.
T1 sequence (P05067 whole entry): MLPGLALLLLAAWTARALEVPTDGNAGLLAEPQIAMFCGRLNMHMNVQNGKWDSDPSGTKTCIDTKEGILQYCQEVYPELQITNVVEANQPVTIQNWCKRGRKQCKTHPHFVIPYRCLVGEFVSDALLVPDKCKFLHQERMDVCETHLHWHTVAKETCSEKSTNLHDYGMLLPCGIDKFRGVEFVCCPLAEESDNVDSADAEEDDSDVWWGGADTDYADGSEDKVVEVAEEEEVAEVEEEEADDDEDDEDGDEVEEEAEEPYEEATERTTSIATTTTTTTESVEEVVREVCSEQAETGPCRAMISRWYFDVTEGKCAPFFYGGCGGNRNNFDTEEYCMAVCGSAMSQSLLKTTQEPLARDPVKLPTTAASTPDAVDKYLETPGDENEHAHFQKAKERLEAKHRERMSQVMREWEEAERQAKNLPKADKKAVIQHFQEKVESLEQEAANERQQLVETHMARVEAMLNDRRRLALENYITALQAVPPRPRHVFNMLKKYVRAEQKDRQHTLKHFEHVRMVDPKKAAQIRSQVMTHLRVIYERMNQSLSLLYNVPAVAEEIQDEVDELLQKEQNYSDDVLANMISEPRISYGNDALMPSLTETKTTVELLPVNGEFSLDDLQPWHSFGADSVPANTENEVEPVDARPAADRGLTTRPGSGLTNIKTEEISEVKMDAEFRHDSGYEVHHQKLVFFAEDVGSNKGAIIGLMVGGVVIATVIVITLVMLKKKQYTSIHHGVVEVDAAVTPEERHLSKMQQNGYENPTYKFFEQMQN
Data set [4] addresses T1, Amyloid-beta precursor protein. In words: Displacement of [125I]IMPY from amyloid beta (1 to 42) (unknown origin) after 3 hrs by gamma counting.
The nature of data set [5]: Drug uptake in Alzheimer's disease patient white matter at 370 kBq/100 uL after 1 hr by thioflavin-S based autoradiography. Conditions: human, in vitro. The format is ADME, tissue-based.
The test system of data set [6] is Brain. In words: Biodistribution in Tg2576 ddY mouse brain at 23.4 to 48.2 kBq, iv measured at 2 to 10 mins by autoradiography. Format: ADME, organism-based. To be noted: in vivo.
Data set [7] relates to Brain. In words: Biodistribution in Tg2576 ddY mouse brain at 23.4 to 48.2 kBq, iv measured at 60 mins by autoradiography. The format is ADME, organism-based. Conditions: in vivo, 1 h.
The target in data set [8] is T1, Amyloid-beta precursor protein. As to the kind of experiment: Binding affinity to beta-amyloid plaque in Alzheimer's disease patient brain cortex after 1 hr by thioflavin-S based autoradiography.
The subject of data set [9] is Brain. As to the kind of experiment: Ratio of drug uptake in ddY mouse brain at 23.4 to 48.2 kBq, iv measured at 2 mins to drug uptake in ddY mouse brain at 23.4 to 48.2 kBq, iv measured at 60 mins. Conditions: in vivo.
Data set [10] concerns Mus musculus. In words: Biodistribution in Tg2576 ddY mouse olfactory tract at 5.5 MBq, iv by autoradiography. Format: ADME, organism-based. Conditions: in vivo.
Data set [11] deals with Mus musculus. In words: Biodistribution in Tg2576 ddY mouse anterior commissure at 5.5 MBq, iv by autoradiography. The format is ADME, organism-based. To be noted: in vivo.
Data set [12] has as its system Mus musculus. In words: Biodistribution in Tg2576 ddY mouse external capsule at 5.5 MBq, iv by autoradiography. To be noted: in vivo. Format: ADME, organism-based.
Data set [13] has as its system Mus musculus. In words: Biodistribution in Tg2576 ddY mouse corpus callosum at 5.5 MBq, iv by autoradiography. Format: ADME, organism-based. Conditions: in vivo.

Activity calls are given as the source filed them. No cut-off for these calls is given here.

For orientation: Ki means a dissociation constant, usually derived from enzyme kinetics or from competition with a known ligand. Lower therefore signals tighter binding.

As for `CN(C)c1ccc(-c2cnc3cc(OCCF)ccc3n2)cc1`, the outcome in the data set with Mus musculus [1] and in the data set with Mus musculus [2] was Active. Moreover, the Ratio Ki in [3] worked out at 10. The Ki in data set [4] came to 0.895 nM.

For the molecule `CNc1ccc(-c2cnc3ccc(OCC[18F])cc3n2)cc1`, the figures for the Drug uptake result (in data set [5]; in the data set with Brain [6]; with Brain [7]) were “Active”, 4.69 % ID/g and 1.48 % ID/g, respectively. Besides, the Ki in [8] was more than 242 nM. In addition, in the data set on Brain [9], the Ratio turned out to be 2.36.

`Nc1ccc(-c2cnc3cc(OCC[18F])ccc3n2)cc1`: the figures for the Drug uptake result (in data set [5]; in the data set with Brain [6]; in the data set on Brain [7]) were “Active”, 4.69 % ID/g and 1.48 % ID/g, respectively. The Ki in data set [8] is more than 242 nM. Also, the Ratio in the data set on Brain [9] amounted to 2.36.

Take `CNc1ccc(/C=C/c2ccc(OCCOCCOCC[18F])nc2)cc1` [FLORBETAPIR F 18]: in the data set on Brain [6], the Drug uptake entry was “Active”. In addition, the Ratio with Brain [9] came to 3.8.

As for `CN(C)c1ccc(-c2cnc3ccc(OCC[18F])cc3n2)cc1`, the results for the Drug uptake with Brain [6] and in the data set with Brain [7] were 4.69 % ID/g and 1.48 % ID/g, respectively. In addition, the affinity in [8], expressed as Ki, was 111 nM. For the same molecule, the Ratio in the data set on Brain [9] turned out to be 3.91.

As to `Nc1ccc(-c2cnc3ccc(OCC[18F])cc3n2)cc1`, the Drug uptake entry in data set [5] is on record as “Active”; with Brain [6], 4.69 % ID/g; in the data set on Brain [7], 1.48 % ID/g. This molecule also displayed a Ki in [8] of more than 242 nM. Further, in the data set with Brain [9], the Ratio came to 2.36.

As for `CN(C)c1ccc(-c2cnc3cc(OCC[18F])ccc3n2)cc1`, the Drug uptake entry is “Not Active” in [5]; “Active” in the data set on Mus musculus [10]; “Active” in the data set on Mus musculus [11]; “Active” in the data set on Mus musculus [12]; “Active” with Mus musculus [13]; 4.69 % ID/g in the data set with Brain [6]. In the data set with Brain [7], this molecule displayed a Drug uptake of 1.48 % ID/g. Besides, in data set [8], the Ki was 0.895 nM. Also, in the data set on Brain [9], the Ratio was found to be 2.36.

For `CNc1ccc(-c2cnc3cc(OCC[18F])ccc3n2)cc1`, the Drug uptake entry in data set [5] is “Not Active”; in the data set on Brain [6], 4.69 % ID/g; with Brain [7] it was 1.48 % ID/g. Also, the Ki in data set [8] stood at 15.7 nM. Further, the Ratio with Brain [9] came to 2.36.

With `CNc1ccc(/C=C/c2ccc(OCCOCCOCCF)nc2)cc1` [FLORBETAPIR], the affinity in data set [4], expressed as Ki, was 12.8 nM.

Values taken from ChEMBL document CHEMBL2407085, “Structure-Activity Relationships and in Vivo Evaluation of Quinoxaline Derivatives for PET Imaging of β-Amyloid Plaques” (ACS Med Chem Lett, 2013).
